Test results published in patent US20120115845A1, “THERAPEUTIC AGENTS” (priority 2007, published 2012).

Columns and labels:
human GHS receptor [1] = target: T1, human GHS receptor (Homo sapiens, UniProt Q92847); assay: h bind IC50 (binding assay, Table 1); conditions: human receptor; Table 1
human GHS receptor [2] = target: T1, human GHS receptor; assay: Ghrelin IP1 agonist assay (IP1 HTRF); format: cell-based; set-up: expressed in transfected cells; host or cells: HEK293s; conditions: for Emax: 2 h, agonist effect as % maximal effect of GHRP-6 (5 μM), read-out: h IP1 ag %; for EC50: HEK293s cells stably expressing human GHS receptor, 2 hours at 37° C., read-out: h IP1 ag EC50
In short: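 Cells: HEK293s stably expressing human GHS receptor, in stimulation buffer containing 0.02% fatty acid free BSA.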

T1 sequence (Q92847 whole entry): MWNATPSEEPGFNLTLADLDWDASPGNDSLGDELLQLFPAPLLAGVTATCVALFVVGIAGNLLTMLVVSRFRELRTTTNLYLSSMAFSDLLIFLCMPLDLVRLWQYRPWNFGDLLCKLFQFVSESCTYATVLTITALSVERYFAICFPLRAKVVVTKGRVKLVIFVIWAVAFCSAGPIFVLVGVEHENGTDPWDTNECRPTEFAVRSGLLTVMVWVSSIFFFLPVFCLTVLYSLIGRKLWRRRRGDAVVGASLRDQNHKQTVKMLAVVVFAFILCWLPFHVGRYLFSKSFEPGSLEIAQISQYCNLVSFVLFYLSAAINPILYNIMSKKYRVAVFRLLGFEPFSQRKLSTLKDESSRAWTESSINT

Row | Compound | IC50 (human GHS receptor [1]) [nM] | Emax (human GHS receptor [2]) [%] | EC50 (human GHS receptor [2]) [nM]
1 | O=C(NC(=O)c1ccccc1Cl)Nc1nc2ccc(S(=O)(=O)CCNC3CC4CCC3C4)cc2s1 (stereo not drawn) [Example 35, 2-Chloro-N-[[6-[2-(norbornan-2-ylamino)ethylsulfonyl]benzothiazol-2-yl]carbamoyl]benzamide] | 71.5 | 56.1 | 10.4
2 | O=C(NC(=O)c1ccccc1Cl)Nc1nc2ccc(S(=O)(=O)CCN3C[C@@H]4C[C@H]3CO4)cc2s1 [Example 37, 2-Chloro-N-[[6-[2-[(1S,4S)-3-oxa-6-azabicyclo[2.2.1]hept-6-yl]ethylsulfonyl]benzothiazol-2-yl]carbamoyl]benzamide] | 234 | 24 | 61.1
3 | CC(C)OCCNCCS(=O)(=O)c1ccc2nc(NC(=O)NC(=O)c3ccccc3Cl)sc2c1 [Example 38, 2-Chloro-N-[[6-[2-(2-propan-2-yloxyethylamino)ethylsulfonyl]benzothiazol-2-yl]carbamoyl]benzamide] | 179 | 40 | 14.7
4 | CN(C)CCOCCS(=O)(=O)c1ccc2nc(NC(=O)NC(=O)c3ccccc3Cl)sc2c1 [Example 43, 2-Chloro-N-[[6-[2-(2-dimethylaminoethoxy)ethylsulfonyl]benzothiazol-2-yl]carbamoyl]benzamide] | 51.7 | 46 | 42.2
5 | CS(=O)(=O)c1ccc2nc(NC(=O)NC(=O)c3cc(N4CCCC4)ccc3Cl)sc2c1 [Example 48, 2-Chloro-5-(1-pyrrolidinyl)-N-(6-(methylsulfonyl)benzothiazol-2-ylcarbamoyl)benzamide] | 1.3 | 0.32 | ≥ 25000
6 | CS(=O)(=O)c1ccc2nc(NC(=O)NC(=O)c3cc(N4CC=CC4)ccc3Cl)sc2c1 [Example 50, 2-Chloro-5-(2,5-dihydro-pyrrol-1-yl)-N-(6-(methylsulfonyl)benzothiazol-2-ylcarbamoyl)benzamide] | 1 | 0 | ≥ 25000
7 | CCOc1ccc(Cl)c(C(=O)NC(=O)Nc2nc3ccc(S(C)(=O)=O)cc3s2)c1 [Example 53, 2-Chloro-5-ethoxy-N-(6-(methylsulfonyl)benzothiazol-2-ylcarbamoyl)benzamide] | 10 | 0 | ≥ 25000
8 | CS(=O)(=O)c1ccc2nc(NC(=O)NC(=O)c3cc(N4CCOCC4)ccc3Cl)sc2c1 [Example 54, 2-Chloro-N-(6-(methylsulfonyl)benzothiazol-2-ylcarbamoyl)-5-morpholin-4-yl benzamide] | 10.1 | 0.0527 | ≥ 25000
9 | Cc1ccnn1-c1ccc(Cl)c(C(=O)NC(=O)Nc2nc3ccc(S(C)(=O)=O)cc3s2)c1 [Example 55, 2-Chloro-5-(5-methyl-1H-pyrazol-1-yl)-N-(6-(methylsulfonyl)benzothiazol-2-ylcarbamoyl)benzamide] | 23.1 | 48.9 | 5.7
10 | Cc1ccn(-c2ccc(Cl)c(C(=O)NC(=O)Nc3nc4ccc(S(C)(=O)=O)cc4s3)c2)n1 [Example 56, 2-Chloro-5-(3-methyl-1H-pyrazol-1-yl)-N-(6-(methylsulfonyl)benzothiazol-2-ylcarbamoyl)benzamide] | 10.1 | 10.8 | ≥ 25000
11 | CN(C)C1CCN(c2ccc(Cl)c(C(=O)NC(=O)Nc3nc4ccc(S(C)(=O)=O)cc4s3)c2)C1 (stereo not drawn) [Example 60, 2-Chloro-5-(3-(dimethylamino)pyrrolidin-1-yl)-N-(6-(methylsulfonyl)benzothiazol-2-ylcarbamoyl)benzamide] | 33 | 0.647 | > 25000
12 | CS(=O)(=O)c1ccc2nc(NC(=O)NC(=O)c3cc(CN4CCCC4)ccc3Cl)sc2c1 [Example 62, 2-Chloro-5-pyrrolidin-1-ylmethyl-N-(6-(methylsulfonyl)benzothiazol-2-ylcarbamoyl)benzamide] | 1740 | 9.06 | ≥ 25000
13 | CS(=O)(=O)c1ccc2nc(NC(=O)NC(=O)c3cc(Cl)ccc3Cl)sc2c1 [Example 64, 2,5-Dichloro-N-[(6-methylsulfonylbenzothiazol-2-yl)carbamoyl]benzamide] | 139 | 8.74 | 19
14 | Cc1ccc(Cl)c(C(=O)NC(=O)Nc2nc3ccc(S(C)(=O)=O)cc3s2)c1 [Example 65, 2-Chloro-5-methyl-N-(6-(methylsulfonyl)benzothiazol-2-ylcarbamoyl)benzamide] | 272 | 8.23 | 81
15 | CS(=O)(=O)c1ccc2nc(NC(=O)NC(=O)c3cc(-n4cccc4)ccc3Cl)sc2c1 [Example 66, 2-Chloro-N-[(6-methylsulfonylbenzothiazol-2-yl)carbamoyl]-5-pyrrol-1-yl-benzamide] | 23.1 | 0 | ≥ 25000
16 | CS(=O)(=O)c1ccc2nc(NC(=O)NC(=O)c3cc(-n4cncn4)ccc3Cl)sc2c1 [Example 67, 2-Chloro-N-(6-(methylsulfonyl)benzothiazol-2-ylcarbamoyl)-5-(1H-1,2,4-triazol-1-yl)benzamide] | 536 | 0 | > 20000

Further molecules by falling IC50 (human GHS receptor [1]), results first:

Row | IC50 (human GHS receptor [1]) [nM] | Emax (human GHS receptor [2]) [%] | EC50 (human GHS receptor [2]) [nM] | Compound
17 | 2770 | 31.8 | 61.4 | CN(C)CCOc1ccc(Cl)c(C(=O)NC(=O)Nc2nc3ccc(S(C)(=O)=O)cc3s2)c1 [Example 63, 2-Chloro-5-(2-(dimethylamino)ethoxy)-N-(6-(methylsulfonyl)benzothiazol-2-ylcarbamoyl)benzamide]
18 | 1310 | 8.82 | 3010 | CS(=O)(=O)Oc1ccc(Cl)c(C(=O)NC(=O)Nc2nc3ccc(S(C)(=O)=O)cc3s2)c1 [Example 58, 4-Chloro-3-(6-(methylsulfonyl)benzothiazol-2-ylcarbamoylcarbamoyl)phenyl methanesulfonate]
19 | 535 | 18.1 | 95.8 | O=C(NC(=O)c1ccccc1Cl)Nc1nc2ccc(S(=O)(=O)CCO)cc2s1 [Example 41, 2-Chloro-N-[[6-(2-hydroxyethylsulfonyl)benzothiazol-2-yl]carbamoyl]benzamide]
20 | 305 | 34.3 | 9.55 | COCC1CCCN1CCS(=O)(=O)c1ccc2nc(NC(=O)NC(=O)c3ccccc3Cl)sc2c1 (stereo not drawn) [Example 36, 2-Chloro-N-[[6-[2-[2-(methoxymethyl)pyrrolidin-1-yl]ethylsulfonyl]benzothiazol-2-yl]carbamoyl]benzamide]
21 | 207 | 0.377 | > 9300 | CN1CCN(c2ccc(Cl)c(C(=O)NC(=O)Nc3nc4ccc(S(C)(=O)=O)cc4s3)c2)CC1 [Example 59, 2-Chloro-5-(4-methylpiperazin-1-yl)-N-(6-(methylsulfonyl)benzothiazol-2-ylcarbamoyl)benzamide]
22 | 162 | 0 | > 25000 | CS(=O)(=O)c1ccc2nc(NC(=O)NC(=O)c3cc(-c4ncccn4)ccc3Cl)sc2c1 [Example 57, 2-Chloro-N-(6-(methylsulfonyl)benzothiazol-2-ylcarbamoyl)-5-(pyrimidin-2-yl)benzamide]
23 | 161 | 0.276 | > 25000 | C#Cc1ccc(Cl)c(C(=O)NC(=O)Nc2nc3ccc(S(C)(=O)=O)cc3s2)c1 [Example 61, 2-Chloro-5-ethynyl-N-(6-(methylsulfonyl)benzothiazol-2-ylcarbamoyl)benzamide]
24 | 99.3 | 46.7 | 11.1 | O=C(NC(=O)c1ccccc1Cl)Nc1nc2ccc(S(=O)(=O)CCNCC3CC3)cc2s1 [Example 34, 2-Chloro-N-[[6-[2-(cyclopropylmethylamino)ethylsulfonyl]benzothiazol-2-yl]carbamoyl]benzamide]
25 | 81.6 | 0 | ≥ 25000 | CS(=O)(=O)c1ccc2nc(NC(=O)NC(=O)c3cc(-n4ccnn4)ccc3Cl)sc2c1 [Example 47, 2-Chloro-5-[1,2,3]triazol-1-yl-N-(6-(methylsulfonyl)benzothiazol-2-ylcarbamoyl)benzamide]
26 | 21.4 | 0.946 | ≥ 25000 | CS(=O)(=O)c1ccc2nc(NC(=O)NC(=O)c3cc(-c4ccccn4)ccc3Cl)sc2c1 [Example 45, 2-Chloro-5-(pyridin-2-yl)-N-(6-(methylsulfonyl)benzothiazol-2-ylcarbamoyl)benzamide]
27 | 18.2 | 49 | 5.73 | O=C(NC(=O)c1ccccc1Cl)Nc1nc2ccc(S(=O)(=O)C3CCNC3)cc2s1 (stereo not drawn) [Example 44, 2-Chloro-N-[(6-pyrrolidin-3-ylsulfonylbenzothiazol-2-yl)carbamoyl]benzamide]
28 | 14.2 | 1 | 16 | CS(=O)(=O)c1ccc2nc(NC(=O)NC(=O)c3cc(OC4CCCC4)ccc3Cl)sc2c1 [Example 51, 2-Chloro-5-cyclopentyloxy-N-(6-(methylsulfonyl)benzothiazol-2-ylcarbamoyl)benzamide]
29 | 12.9 | 0 | ≥ 25000 | CS(=O)(=O)c1ccc2nc(NC(=O)NC(=O)c3cc(C4CC4)ccc3Cl)sc2c1 [Example 49, 2-Chloro-5-cyclopropyl-N-(6-(methylsulfonyl)benzothiazol-2-ylcarbamoyl)benzamide]
30 | 12 | 0.5 | 8240 | CS(=O)(=O)c1ccc2nc(NC(=O)NC(=O)c3cc(-n4cccn4)ccc3Cl)sc2c1 [Example 46, 2-Chloro-5-(pyrazol-1-yl)-N-(6-(methylsulfonyl)benzothiazol-2-ylcarbamoyl)benzamide]
31 | 3.7 | 0 | ≥ 25000 | CS(=O)(=O)c1ccc2nc(NC(=O)NC(=O)c3cc(C4CCCC4)ccc3Cl)sc2c1 [Example 52, 2-Chloro-5-cyclopentyl-N-(6-(methylsulfonyl)benzothiazol-2-ylcarbamoyl)benzamide]
